Experiment [1] deals with AMPARs. Also noted: method as in earlier work. The settings on record: read-out: inhibition constant (Ki) for AMPARs; cited from earlier work.
For the next experiment, the system named is GluA1–4. The experiment in a line: Fluorescence Ca2+ assay, inhibition of glutamate-induced response in HEK293T cells transfected with GluA1-4. The format is cell-based, mouse. The settings on record: 30 µM glutamate-induced Ca2+ response; GluA1–4 in HEK293T cells. The method, then: HEK293T cells transfected with Ca2+-permeable GluA1–4 (GluA1 flip(Q), GluA2flip(Q), GluA3flip(Q) (Y454A/R461G), and GluA4flip(Q)) or GluK2(Q) were seeded on the 96 well plate. The cells were loaded with 5 µM Cal-520 AM (AAT Bioquest) in the culture medium for 2 h and washed with HBS using AquaMax 2000 (Molecular devices). The imaging experiment was carried out in an HBS buffer. For the fluorescence Ca2+ imaging, PFQX-amine was pretreated to the cells for 3 min followed by the addition of 30 µM glutamate with 100 µM cyclothiazide as a desensitization inhibitor for AMPARs and 100 µM kainic acid with 100 µM BPAM344 as a desensitization inhibitor for kainate receptors.
Fluorescent intensity of Cal-520 was obtained using FlexStation3 (Molecular devices), and analyzed with SoftMax Pro 7 (Molecular devices). ΔRFU was defined as the difference between the maximum intensity value after adding glutamate and the average intensity value before adding the glutamate. ΔRFU was fitted with KaleidaGraph.
Immunostaining of cultured neurons
The cultured hippocampal neurons were fixed with cold methanol for 5 min and washed with PBS three times. Fixed cells were incubated with Blocking One Histo (Nacalai Tesque) for 10 min. The cells were washed with PBS containing 0.05% Tween 20 (PBS-T) once and incubated with primary antibodies in PBS-T containing 5% Blocking One Histo at room temperature for 2 h. […]

A further experiment concerns native AMPARs. The experiment in a line: Concentration-dependent binding of PFQX1(AF488) to AMPARs in primary cultured hippocampal neurons. Also noted: species or system mouse. The settings on record: 10 µM NBQX added after 100 nM PFQX1(AF488); cultured hippocampal neurons. The method, then: We modified the Banker’s culture method of hippocampal neurons ([59]). Glass-bottom dishes (14 mm φ, Matsunami) were coated with poly-D-lysine (Sigma-Aldrich) and washed three times with sterile dH2O. Hippocampi from 16-day-old ICR mouse embryos were aseptically dissected and digested with 0.25% (w/v) trypsin (Nacalai Tesque) for 20 min at 37°C. The cells were resuspended in Neurobasal Plus medium supplemented with 10% FBS, 1 mM GlutaMAX I (Invitrogen), penicillin (100 U/ml), and streptomycin (100 μg/ml) and filtered by Cell Strainer (100 μm, Falcon) followed by centrifugation at 1000 rpm for 5 min. The cells were resuspended in Neurobasal Plus medium supplemented with 2% of B-27 Plus Supplement, 1 mM GlutaMAX I (Invitrogen), penicillin (100 U/ml), and streptomycin (100 μg/ml) and plated at a density of 2 × 10^4 cells on glass-bottom dishes. Precultured cortical astrocytes on glass coverslips (13 mm φ) were transferred to the dishes so that astrocytes were faced to neurons. The cultures were maintained at 37°C in a 95% air and 5% CO2 humidified incubator. The culture medium was replaced every 7 days, and the neurons were used at 16 to 18 days in vitro (DIV).
Calcein Red AM (50 nM; AAT Bioquest) was added to the cultured neurons for 30 min at 37°C to visualize the intracellular region. The cells were washed with Hepes-based ACSF [25 mM Hepes (pH 7.4), 140 mM NaCl, 5 mM KCl, 1.3 mM CaCl2, 2 mM MgCl2, and 33 mM glucose], and 100 nM PFQX1(AF488) in Hepes-based ACSF was added to the dish.
For evaluating the concentration dependency of PFQX1(AF488), the cells were treated with 1 nM PFQX1(AF488). Then, PFQX1(AF488) in Hepes-based ACSF was added stepwise to the dish to a final concentration of 3, 10, 30, 100, 300, and 1000 nM. To quantify the concentration dependency after cLTP, the procedure described above was conducted after cLTP stimulation as described in the section “cLTP and quantification of cell-surface AMPARs.” The average intensity of ROIs set on spines was calculated by ZEN blue software after subtracting background fluorescence. The intensity was fitted with KaleidaGraph to calculate the equilibrium constant value using the following equation: a + (b − a)/(1 + (x/c)^d). The equilibrium constant is regarded as the Kd in this study.

For experiment [2], the system named is AMPARs. The experiment in a line: Staining of AMPARs in acute cerebellar slices. The format is binding, mouse. The settings on record: 10 µM NBQX with 30 nM PFQX1(AF488), 5 min; molecular layer. The method, then:
following secondary antibodies were used: donkey anti-mouse CF568 conjugated (Sigma, […]
1:1,000) and anti-rabbit Alexa Fluor Plus 488 conjugated (Invitrogen, A32731, 1,000).
Imaging was performed with confocal microscopy.
With two-step labeling, the cells were labeled as described in “Two -step labeling and PFQX1(AF488)staining in cultured neurons,” followed by immunostaining.
In fig. S9A, the cells were incubated with 500 nM CellTracker Red CMPTX (Invitrogen) instead of Calcein Red AM for 30 min at 37 °C to visualize the intracellular region before the immunostaining.
Preparation and staining of cerebellar acute brain slices
C57BL/6J mice (3 weeks) were anesthetized with isoflurane, and their brains were isolated and immediately transferred to ice-cold cutting solution buffer (120 mM Choline Chloride, 3 mM KCl, 8 mM MgCl2, 1.25 mM NaH2PO4, 28 mM NaHCO3, 22 mM Glucose, and 0.5 mM Sodium ascorbate) gassed with 5% CO2 and 95% O2 and incubated for 5 min. Sagittal cerebellar slices were cut with a microslicer (Neo-linear slicer NLS-MT; DOSAKA EM) in cutting solution buffer and then incubated in ACSF […]
NaHCO3, 10 mM Glucose) gassed with 5% CO 2 and 95% O 2 at 37 °C.
Acute slices were transferred to glass bottom dishes and treated with 30 nM PFQX1(AF488) in HEPES-based ACSF for 5 min. […]
Scale bars, 500 µm. (F) Quantification of probe intensity in Ε. […]

Experiment [3] concerns cultured hippocampal neurons. The experiment in a line: cLTP stimulation and quantification of cell-surface AMPARs in spines of cultured hippocampal neurons. The format is cell-based, mouse. As to conditions: [AP5] = 50 µM, [MK-801] = 20 µM, [KN93] = 5 µM, [BFA] = 25 µM; 200 µM glycine 15 min. The method, then: After washing the cells with Hepes-based ACSF, 100 nM PFQX1(AF488) was added to the dish. The cells were scanned to obtain “basal state” images. Then, the cells were washed three times with cLTP stimulation buffer (Hepes-based ACSF except for MgCl2 supplemented with 20 μM bicuculline and 1 μM strychnine) to remove PFQX1(AF488). cLTP was induced by 200 μM glycine in cLTP stimulation buffer for 15 min at room temperature. After washing the cells with cLTP incubation buffer (Hepes-based ACSF supplemented with 20 μM bicuculline and 1 μM strychnine), the cells were incubated for 60 min at room temperature. Last, 100 nM PFQX1(AF488) was added to the dish, and images were scanned to obtain “after cLTP” images. Inhibitors (50 μM AP5 and 20 μM MK-801 for NMDARs and 5 μM KN93 for CaMKII and 25 μM […] for exocytosis) were added to cLTP stimulation buffer and cLTP incubation buffer. To quantify the fluorescence intensity in spines, the average signal intensity of ROIs set on dendritic spines or dendritic shafts was calculated by ZEN blue software after subtracting background fluorescence. The fold change value was calculated using the following equation: (fluorescence intensity of “after cLTP” images)/(fluorescence intensity of “basal state” images).
To label endogenous AMPARs, 10 μM CAM2(TCO) in the culture medium was gently added to the hippocampal neurons on a glass-bottom dish to a final concentration of 2 μM CAM2(TCO). The cells were incubated for 2 hours at 37°C. In the second step, the culture medium was removed, and the cells were treated with 100 nM Tz(ST647) for 5 min in Hepes-based ACSF at room temperature. To quench excess Tz(ST647), 1 μM TCO-OH in Hepes-based ACSF was added. Then, the cells were treated with 100 nM PFQX1(AF488). Imaging was performed with confocal microscopy.

Experiment [4] concerns Halo-tag-fused GluA2 in HEK293T cells. In words: Exocytosis assay of AMPARs in HEK293T cells (Halo-tag pulse labeling). The format is cell-based. The settings on record: 25 µM, 2 h at 37 °C. The procedure: Exocytosis assay of AMPARs in HEK293T cells
HEK293T cells expressing Halo-tag-GluA2 flip(Q)-3’UTR were treated with Halo-tag ligand-Alexa488 (HTL(AF488)) for 30 min at room temperature as a first pulse. After washing with DMEM three times, the cells were incubated with 25 µM brefeldin A or DMSO for 2 h at 37 °C in a 95% air and 5% CO2 humidified incubator. Then, HTL(AF647) was added to the dishes and incubated for 15 min at room temperature as a second pulse to visualize spontaneous exocytosed AMPARs. Labeled cells were fixed with 4% PFA for 15 min. The fluorescent images were obtained using confocal […]
General materials and methods for organic synthesis
All chemical reagents and solvents were purchased from commercial sources (FUJIFILM Wako pure chemical, TCI chemical, Sigma-Aldrich, Click Chemistry Tools, BroadPharm) and were used without further purification. Thin-layer chromatography (TLC) was performed on silica gel 60 F254 precoated aluminum sheets (Merck).
Chromatographic purification was performed by flash column chromatography on silica gel 60 N (neutral, 40–50 µm, Kanto Chemical). 1H-NMR spectra were recorded in deuterated solvents on an Avance III HD 300 MHz or 500 MHz (Bruker). […] High-resolution mass spectra were measured on a Compact (Bruker) equipped with electron spray ionization (ESI). […]

The values below come from publication PMC12143348, “Rapid and reversible fluorescent probe enables repeated snapshot imaging of AMPA receptors during synaptic plasticity” (Science Advances, 2025).

Molecules are shown by their SMILES. “Also recorded” adds a separate entry of the source.

As to `O=c1[nH]c2cc(-n3cccc3)c(C(F)(F)F)cc2[nH]c1=O` [PFQX, 6-pyrrolyl-7-trifluoromethyl-quinoxaline-2,3-dione], at AMPARs [1], the Ki was 0.17 µM. Besides, the “antagonism of AMPAR subunits” value with GluA1–4 is “antagonized AMPARs in a subunit-nonspecific manner”.
Turning to `NS(=O)(=O)c1cccc2c1c([N+](=O)[O-])cc1[nH]c(=O)c(=O)[nH]c12` [NBQX, 2,3-dioxo-6-nitro-1,2,3,4-tetrahydrobenzo(f)quinoxaline-7-sulfonamide, reference compound], in the experiment with native AMPARs, the “competitive inhibition of PFQX1(AF488) binding in neurons” value is “fluorescent signals from the puncta disappeared”. Besides, the “competitive inhibition of PFQX1(AF488) binding in cerebellar slices” value with AMPARs [2] is recorded as “significantly weakened”.
In the case of `C[C@]12N[C@H](Cc3ccccc31)c1ccccc12` [MK-801], the “effect on the increase in PFQX1(AF488) fluorescence in spines after cLTP stimulation” value (from here on “effect on the increase”) in experiment [3] is recorded as “suppressed the increase in PFQX1(AF488) fluorescence”.
On to `C[C@H]1CCC/C=C/[C@@H]2C[C@H](O)C[C@H]2[C@H](O)/C=C/C(=O)O1` [brefeldin A], for which the “effect on the increase” value in experiment [3] is “inhibited the fluorescent increase in PFQX1(AF488)”. For the same compound, the “effect on spontaneous exocytosis of Halo-tag-fused AMPAR to the cell surface” value in experiment [4] is given as “markedly suppressed the spontaneous exocytosis”.
Take `COc1ccc(S(=O)(=O)N(CCO)c2ccccc2CN(C)C/C=C/c2ccc(Cl)cc2)cc1` [KN93]: in experiment [3], the “effect on the increase” value is recorded as “suppressed the increase in PFQX1(AF488) fluorescence”.
Take `NC(CCCP(=O)(O)O)C(=O)O` (stereo not drawn) [AP5]: the “effect on the increase” value in experiment [3] was “suppressed the increase in PFQX1(AF488) fluorescence; also recorded: increase in both PFQX1(AF488) and ST647 fluorescence was not observed”.

In general, Ki refers to the dissociation constant of the complex between target and ligand, obtained from inhibition or displacement.
